We go through 31 molecules from patent US9745328B2, “Flap modulators” (JANSSEN PHARMACEUTICA NV, priority 2013, dated 2017).

Where a name gives a salt, the structure may show the parent alone. Read-outs that look alike come from different tables or passages of the source.

The term IC50 denotes the point on the concentration scale where inhibition reaches its midpoint. Broadly, the Ki is the dissociation constant of the complex between target and ligand, obtained from inhibition or displacement.

For experiment [1], the system named is leukotriene pathway in human whole blood (LTB4). The experiment can be described thus: Human whole blood assay (LTB4 levels after calcium ionophore A23187 stimulation). The experiment is classed as cell-based. Particulars: Homo sapiens, read-out: Human Whole Blood LTB4 IC50 1:1. In short, it runs like this:
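Heparinised human whole blood, diluted 1:1 in RPMI, was pre-incubated with test compounds for 15 min at 37° Celsius, then stimulated with A23187 (7 μg/mL) for 30 min at 37° Celsius. Plasma LTB4 was measured by immunoassay kit; IC50 from 4-parameter fit; single replicate, at least one healthy donor.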

The target in the next experiment is human FLAP (Homo sapiens (Human), UniProt P20292). The experiment can be described thus: FLAP binding assay (HTRF format). In short, it runs like this: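 Samples were run in duplicate on each of two plates and the plate results averaged. Read-out is the HTRF signal ratio.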
human FLAP, sequence (P20292 whole entry): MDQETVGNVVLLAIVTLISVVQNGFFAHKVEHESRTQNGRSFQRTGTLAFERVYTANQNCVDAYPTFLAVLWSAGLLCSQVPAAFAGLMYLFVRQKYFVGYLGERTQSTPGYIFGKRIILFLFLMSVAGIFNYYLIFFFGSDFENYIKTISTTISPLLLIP
A general note: Time-resolved FRET reads energy transfer from a long-lived donor to a nearby acceptor.

Setting [2] is: Table 6 (additional runs), human whole blood diluted 1:1, A23187 stimulation.
[3] abbreviates: Table 6 (additional runs), human FLAP wild type.
[4] abbreviates: human whole blood diluted 1:1, A23187 stimulation, Table 6 (additional runs).
Setting [5] is: human FLAP wild type, Table 6 (additional runs).

As to `CN1CCN(S(=O)(=O)c2cc(C(F)(F)F)ccc2-c2ccc(-c3cnc(N)cn3)c(F)c2)CC1` [Example 212, 5-{3-Fluoro-2′-[(4-methylpiperazin-1-yl)sulfonyl]-4′-(trifluoromethyl)biphenyl-4-yl}pyrazin-2-amine], the IC50 in experiment [1] (setting [2]) came out at 5.3 nM. For the same molecule, the inhibitory constant (Ki) at human FLAP (setting [3]) was found to be 0.8 nM.
As for `CC(=O)N1CCC(S(=O)(=O)c2nc(C(F)(F)F)ccc2-c2ccc(-c3cnc(N)cn3)c(F)c2)CC1` [Example 910], the IC50 in experiment [1] (setting [4]) amounted to 9.2 nM. The same molecule had a Ki at human FLAP (setting [5]) of 2.9 nM.
The corresponding values for `Nc1cnc(-c2ccc(-c3ccccc3-c3cn[nH]c3)cc2F)cn1` [Example 870, 5-[3-Fluoro-2′-(1H-pyrazol-4-yl)biphenyl-4-yl]pyrazin-2-amine] are 86.7 nM and 14.3 nM.
`Nc1ncc(-c2ccc(-c3ccc(C(F)(F)F)nc3S(=O)(=O)C3CCOCC3)cc2F)cn1` [Example 907, 5-{2-Fluoro-4-[2-(tetrahydro-2H-pyran-4-ylsulfonyl)-6-(trifluoromethyl)pyridin-3-yl]phenyl}pyrimidin-2-amine]: the IC50 in experiment [1] is 12 nM. In addition, on human FLAP (setting [5]), the Ki stood at 6 nM.
Turning to `Nc1cnc(-c2ccc(-c3ccccc3S(=O)(=O)C3CCCC3)cc2F)cn1` [Example 195, 5-[2′-(Cyclopentylsulfonyl)-3-fluorobiphenyl-4-yl]pyrazin-2-amine], in experiment [1] (setting [2]), the IC50 worked out at 69 nM. Moreover, at human FLAP (setting [3]), the Ki stood at 2.3 nM.
Take `Nc1cnc(-c2ccc(-c3ccc(C(F)(F)F)nc3S(=O)(=O)C3CCS(=O)(=O)CC3)cc2F)cn1` [Example 912, 5-(4-{2-[(1,1-Dioxidotetrahydro-2H-thiopyran-4-yl)sulfonyl]-6-(trifluoromethyl)pyridin-3-yl}-2-fluorophenyl)pyrazin-2-amine]: the IC50 in experiment [1] (setting [4]) worked out at 8.8 nM. On human FLAP (setting [5]), the Ki is 0.5 nM.
As to `CCN(CC)S(=O)(=O)c1ccccc1-c1ccc(-c2cnc3[nH]ccc3n2)c(F)c1` [Example 373, N-Diethyl-3′-fluoro-4′-(5H-pyrrolo[2,3-b]pyrazin-2-yl)biphenyl-2-sulfonamide], the IC50 in experiment [1] (setting [2]) was found to be 6.6 nM. In addition, the inhibition constant Ki on human FLAP (setting [3]) worked out at 0.8 nM.
For `C[C@H](NS(=O)(=O)c1ccccc1-c1cnc(-c2cnc(N)nc2)c(F)c1)C(F)(F)F` [Example 877, 2-[6-(2-Aminopyrimidin-5-yl)-5-fluoropyridin-3-yl]-N-[(1S)-2,2,2-trifluoro-1-methylethyl]penzenesulfonamide as the hydrochloride salt], the IC50 in experiment [1] (setting [4]) is 10.5 nM. Also, the affinity on human FLAP (setting [5]), expressed as Ki, was 4.7 nM.
The corresponding values for `N#CCn1cc(-c2ccccc2-c2ccc(-c3cnc(N)nc3)c(F)c2)cn1` [Example 875, {4-[4′-(2-Aminopyrimidin.-5-yl)-3′-fluorobiphenyl-2-yl]-1H-pyrazol-yl}acetonitrile] are 851 nM and 170 nM.
Regarding `Nc1cnc(-c2ccc(-c3ccccc3S(=O)(=O)N3CCC(O)CC3)cc2F)cn1` [Example 67, 1-{[4′-(5-Aminopyrazin-2-yl)-3′-fluorobiphenyl-2-yl]sulfonyl}piperidin-4-ol], the IC50 in experiment [1] (setting [2]) was found to be 16.8 nM. Moreover, the Ki on human FLAP (setting [3]) was 4.2 nM.
Turning to `Nc1cnc(-c2ccc(-c3ccccc3-c3ccnc(N)n3)cc2F)cn1` [Example 868, 4-[4′-(5-Aminopyrazin-2-yl)-3′-fluorobiphenyl-2-yl]pyrimidin-2-amine], the IC50 in experiment [1] (setting [4]) was 345 nM. At human FLAP (setting [5]), this molecule gave a Ki of 21.5 nM.
The corresponding values for `Nc1ncc(-c2ccc(-c3ccccc3-c3cn[nH]c3)cc2F)cn1` [Example 876, 5-[3-Fluoro-2′-(1H-pyrazo-4-yl)biphenyl-4-yl]pyrimidin-2-amine] are 1080 nM and 80.3 nM.
Consider `N#CC1CCN(S(=O)(=O)c2ccccc2-c2ccc(-c3cnc(N)cn3)c(F)c2)CC1` [Example 64, 1-{[4′-(5-Aminopyrazin-2-yl)-3′-fluorobiphenyl-2-yl]sulfonyl}piperidine-4-carbonitrile], for which the IC50 in experiment [1] (setting [2]) amounted to 13.1 nM. This molecule also had a Ki at human FLAP (setting [3]) of 1.9 nM.
For `Nc1cnc(-c2ccc(-c3cccnc3S(=O)(=O)c3ccccc3)cc2F)cn1` [Example 897, 5-{2-Fluoro-4-[2-(phenylsulfonyl)pyridin-3-yl]phenyl}pyrazin-2-amine], in experiment [1] (setting [4]), the IC50 is 90.3 nM. At human FLAP (setting [5]), this molecule registered a Ki of 7 nM.
In the same order, the values of `Nc1cnc(-c2ccc(-c3ccccc3OCc3ccc(C(=O)O)cc3)cc2F)cn1` [Example 886, 4-(([4′-(5-Aminopyrazin-2-yl)-3′-fluorobiphenyl-2-yl]oxy}methyl)benzoic acid] are above 1000 nM and 5.8 nM.
In the case of `Nc1cnc(-c2ccc(-c3ccccc3S(=O)(=O)N[C@H]3c4ccccc4C[C@H]3O)cc2F)cn1` [Example 160, 4′-(5-aminopyrazin-2-yl)-3′-fluoro-N-((1S,2R)-2-hydroxy-2,3-dihydro-1H-inden-1-yl)-[1,1′-biphenyl]-2-sulfonamide], in experiment [1] (setting [2]), the IC50 worked out at 5.3 nM. Also, the Ki on human FLAP (setting [3]) is 0.4 nM; at human FLAP (human FLAP wild type, a calculated value of 0.000 indicates Ki less than 1 nM), below 1 nM.
For the molecule `CN1CCC(S(=O)(=O)c2ncccc2-c2ccc(-c3cnc(N)cn3)c(F)c2)C1` (stereo not drawn) [Example 900, 5-(2-Fluoro-4-{2-[(1-methylpyrrolidin-3-yl)sulfonyl]pyridin-3-yl}phenyl)pyrazin-2-amine], the IC50 in experiment [1] (setting [4]) was 40.8 nM. Besides, the Ki on human FLAP (setting [5]) stood at 35.1 nM.
`CC(C)N(CCO)S(=O)(=O)c1ccccc1-c1ccc(-c2cnc(N)cn2)c(F)c1` [Example 141, 4′-(5-Aminopyrazin-2-yl)-3′-fluoro-N-(2-hydroxyethyl)-N-(1-methylethyl)biphenyl-2-sulfonamide]: the IC50 in experiment [1] (setting [2]) is 3.3 nM. This molecule also had a Ki at human FLAP (setting [3]) of 0.7 nM.
Take `Nc1cnc(-c2ccc(-c3cccnc3S(=O)(=O)c3cccnc3)cc2F)cn1` [Example 899, 5-{2-Fluoro-4-[2-(pyridin-3-ylsulfonyl)pyridin-3-yl]phenyl}pyrazin-2-amine]: the IC50 in experiment [1] (setting [4]) amounted to 87.3 nM. For the same molecule, the Ki at human FLAP (setting [5]) stood at 77 nM.
The corresponding values for `Nc1ccc(-c2ccccc2-c2ccc(-c3cnc(N)nc3)c(F)c2)cn1` [Example 865, 5-[2′-(6-Aminopyridin-3-yl)-3-fluorobiphenyl-4-yl]pyrimidin-2-amine] are 192 nM and 96.2 nM.
As to `Nc1cnc(-c2ccc(-c3ccccc3-c3cnsc3)cc2F)cn1` [Example 873, 5-(3-Fluoro-2′-isothiazol-4-ylbiphenyl-4-yl)pyrazin-2-amine], the IC50 in experiment [1] (setting [4]) was found to be 336 nM. At human FLAP (setting [5]), this molecule displayed a Ki of 23.1 nM.
In the case of `Nc1cnc(-c2ccc(-c3ccccc3S(=O)(=O)N[C@H]3c4ccccc4C[C@@H]3O)cc2F)cn1` [Example 158], in experiment [1] (setting [2]), the IC50 was 1.4 nM. The molecule also came in with a Ki at human FLAP (setting [3]) of 0.6 nM.
For the molecule `CS(=O)(=O)N1CCC(S(=O)(=O)c2ncccc2-c2ccc(-c3cnc(N)nc3)c(F)c2)CC1` [Example 909, 5-(2-Fluoro-4-(2-{[1-(methylsulfonyl)piperidin-4-yl]sulfonyl}pyridin-3-yl)phenyl]pyrimidin-2-amine], the IC50 in experiment [1] (setting [4]) is 117 nM. This molecule displayed a Ki on human FLAP (setting [5]) of 253 nM.
In the same order, the values of `Nc1cnc(-c2ccc(-c3ccc(C(F)(F)F)nc3S(=O)(=O)C3CCOCC3)cc2F)cn1` [Example 906, 5-{2-Fluoro-4-[2-(tetrahydro-2H-pyran-4-ylsulfonyl)-6-(trifluoromethyl)pyridin-3-yl]phenyl}pyrazin-2-amine] are 2 nM and 0.3 nM.
In the same order, the values of `Nc1ncc(-c2ccc(-c3ccc(C(F)(F)F)nc3S(=O)(=O)C3CCS(=O)(=O)CC3)cc2F)cn1` [Example 913, 5-(4-{2-[(1,1-Dioxidotetrahydro-2H-thiopyran-4-yl)sulfonyl]-6-(trifluoromethyl)pyridin-3-yl}-2-fluorophenyl)pyrimidin-2-amine] are 11.9 nM and 6.3 nM.
The corresponding values for `N#Cc1ncc(-c2ccccc2-c2ccc(-c3cnc(N)cn3)c(F)c2)cn1` [Example 849, 5-[4′-(5-Aminopyrazin-2-yl)-3′-fluorobiphenyl-2-yl]pyrimidine-2-carbonitrile] are 3900 nM and 38.3 nM.
`Nc1cnc(-c2ccc(-c3ccc(C(F)(F)F)cc3N)cc2F)cn1` [Example 892, 5-[2′-Amino-3-fluoro-4′-(trifluoromethyl)biphenyl-4-yl]pyrazin-2-amine]: the IC50 in experiment [1] (setting [4]) was found to be 731 nM. The same molecule had a Ki at human FLAP (setting [5]) of 77.4 nM.
The corresponding values for `C[C@@H](NS(=O)(=O)c1ccccc1-c1cnc(-c2cnc(N)nc2)c(F)c1)C(F)(F)F` [Example 883, 2-[6-(2-Aminopyrimidin-5-yl)-5-fluoropyridin-3yl]-N-[(1R)-2,2,2-trifluoro-1-methylethyl]benzenesulfonamide] are 69.5 nM and 34.2 nM.
As to `CC(O)CN1CCC(S(=O)(=O)c2ncccc2-c2ccc(-c3cnc(N)cn3)c(F)c2)CC1` (racemic) [Example 905, 1-[4-({3-[4-(5-Aminopyrazin-2-yl)-3-fluorophenyl]pyridin-2-yl}sulfonyl)piperidin-1-yl]propan-2-ol], the IC50 in experiment [1] (setting [4]) was 52.9 nM. In addition, the Ki at human FLAP (setting [5]) turned out to be 57.9 nM.
The corresponding values for `Nc1ncc(-c2ncc(-c3ccccc3S(=O)(=O)NCCO)cc2F)cn1` [Example 882, 2-[6-(2-Aminopyrimidin-5-yl)-5-fluoropyridin-3-yl]-N-(2-hydroxyethyl)benzenesulfonamide] are 68.8 nM and 167 nM.
The corresponding values for `Nc1cnc(-c2ccc(-c3cccnc3-c3ccccc3)cc2F)cn1` [Example 893, 5-[2-Fluoro-4-(2-phenylpyridin-3-yl)phenyl]pyrazin-2-amine] are 603 nM and 30.3 nM.
